Test results: patent US20230017532A1 (Hoffmann-La Roche Inc., priority 2018, published 2023)
Structures can show the parent of a compound that is named as a salt.

Each compound was assayed on Acinetobacter baumannii ATCC17978 (assay: Antimicrobial susceptibility testing: 90% growth inhibitory concentration (IC90) determination, Iso-Sensitest broth, OD 600 nm). Conditions: 90% growth inhibitory concentration, Acinetobacter baumannii ATCC17978, Iso-Sensitest broth, OD 600 nm over 16 h; read-out: ATCC 17978 IC90.
Format: cell-based
In short: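 Twofold serial dilutions (e.g. 50–0.097 μM final) incubated with ~5×10^5 CFU/ml in Iso-Sensitest broth at 35±2 °C. OD600 read every 20 min for 16 h; IC90 derived from growth inhibition during logarithmic phase.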

SMILES	IC90
COc1ccc(-c2cnc3c(Nc4ccc(C(=O)NCCOCCN5CCNCC5)c(C)c4)nccn23)cc1 [Example 44, 4-[[3-(4-methoxyphenyl)imidazo[1,2-a]pyrazin-8-yl]amino]-2-methyl-N-[2-(2-piperazin-1-ylethoxy)ethyl]benzamide;dihydrochloride]	460 nM

Same assay, conditions: Acinetobacter baumannii, ATCC17978, 16 h, 90% growth inhibitory concentration, Acinetobacter baumannii ATCC17978, Iso-Sensitest broth, OD 600 nm over 16 h; read-out: ATCC 17978 IC90

SMILES	IC90
COc1ccc(-c2cnc3c(Nc4ccc(C(=O)NCCOCCNC(=O)CO)c(C)c4)nccn23)cc1 [Example 148, N-[2-[2-[(2-hydroxyacetyl)amino]ethoxy]ethyl]-4-[[3-(4-methoxyphenyl)imidazo[1,2-a]pyrazin-8-yl]amino]-2-methylbenzamide]	1300 nM
COc1ccc(-c2cnc3c(Nc4ccc(C(=O)N(C)CCOCCN5CCS(=O)(=O)CC5)c(C)c4)nccn23)cc1F [Example 110, N-[2-[2-(1,1-dioxo-1,4-thiazinan-4-yl)ethoxy]ethyl]-4-[[3-(3-fluoro-4-methoxyphenyl)imidazo[1,2-a]pyrazin-8-yl]amino]-N,2-dimethyl-benzamide]	530 nM
CNC(=O)COCCNC(=O)c1ccc(Nc2nccn3c(-c4ccc(OC(F)F)cc4)cnc23)cc1C [Example 11, 4-((3-(4-(difluoromethoxy)phenyl)imidazo[1,2-a]pyrazin-8-yl)amino)-2-methyl-N-(2-(2-(methylamino)-2-oxoethoxy)ethyl)benzamide]	160 nM
COc1ccc(-c2cnc3c(Nc4ccc(C(=O)NCCOCCNCCO)c(C)c4)nccn23)cc1 [Example 40, N-(2-(2-((2-hydroxyethyl)amino)ethoxy)ethyl)-4-((3-(4-methoxyphenyl)imidazo[1,2-a]pyrazin-8-yl)amino)-2-methylbenzamide]	210 nM
COc1ccc(-c2cnc3c(Nc4ccc(C(=O)NCCOCC(=O)N5CCN(C)CC5)c(C)c4)nccn23)cc1 [Example 115]	590 nM
CCc1cc(Nc2nccn3c(-c4ccc(OC)c(F)c4F)cnc23)ccc1C(=O)NCCOCCN(C)C [Example 169, 4-[[3-(2,3-difluoro-4-methoxyphenyl)imidazo[1,2-a]pyrazin-8-yl]amino]-N-[2-[2-(dimethylamino)ethoxy]ethyl]-2-ethylbenzamide]	130 nM
COc1ccc(-c2cnc3c(Nc4ccc(C(=O)NCCOCCN(C)C)c(Cl)c4)nccn23)c(F)c1F [Example 2, 2-chloro-4-[[3-(2,3-difluoro-4-methoxy-phenyl)imidazo[1,2-a]pyrazin-8-yl]amino]-N-[2-[2-(dimethylamino)ethoxy]ethyl]benzamide;2,2,2-trifluoroacetic acid]	120 nM
CNCCOCCNC(=O)c1ccc(Nc2nccn3c(-c4ccc(OC(F)F)cc4)cnc23)cc1C [Example 45, 4-((3-(4-(difluoromethoxy)phenyl)imidazo[1,2-a]pyrazin-8-yl)amino)-2-methyl-N-(2-(2-(methylamino)ethoxy)ethyl)benzamide]	290 nM
COc1ccc(-c2cnc3c(Nc4ccc(C(=O)N(C)CCOCCN5CC6(COC6)C5)c(C)c4)nccn23)cc1F [Example 108, 4-[[3-(3-fluoro-4-methoxyphenyl)imidazo[1,2-a]pyrazin-8-yl]amino]-N,2-dimethyl-N-[2-[2-(2-oxa-6-azaspiro [3.3]heptan-6-yl)ethoxy]ethyl] benzamide]	520 nM
COc1ccc(-c2cnc3c(Nc4ccc(C(=O)N(C)CCOCCN5CCNCC5)c(C)c4)nccn23)cc1F [Example 131, 4-[[3-(3-fluoro-4-methoxyphenyl)imidazo[1,2-a]pyrazin-8-yl]amino]-N,2-dimethyl-N-[2-(2-piperazin-1-ylethoxy)ethyl]benzamide]	770 nM
Cc1cc(Nc2nccn3c(-c4ccc(OC(F)F)cc4)cnc23)ccc1C(=O)NCCOCCNC(=O)CN1CCN(C)CC1 [Example 143, 4-[[3-[4-(difluoro-methoxy)phenyl]imidazo [1,2-a]pyrazin-8-yl]amino]-2-methyl-N-[2-[2-[[2-(4-methylpiperazin-1-yl)acetyl]amino]ethoxy]ethyl] benzamide]	1200 nM
C#CCOc1ccc(-c2cnc3c(Nc4ccc(C(=O)NCCOCCN)c(CC)c4)nccn23)c(F)c1F [Example 69, N-(2-(2-aminoethoxy)ethyl)-4-((3-(2,3-difluoro-4-(prop-2-yn-1-yloxy)phenyl)imidazo[1,2-a]pyrazin-8-yl)amino)-2-ethylbenzamide]	46 nM
CCc1cc(Nc2nccn3c(-c4ccc(OC)c(F)c4F)cnc23)ccc1C(=O)NCCNCCCN [Example 188, N-[2-(3-amino-propylamino)ethyl]-4-[[3-(2,3-difluoro-4-methoxyphenyl)imidazo[1,2-a]pyrazin-8-y]amino]-2-ethylbenzamide; formic acid]	1200 nM
CNCCCCNC(=O)c1ccc(Nc2nccn3c(-c4ccc(OC)c(F)c4)cnc23)cc1C [Example 161, 4-[[3-(3-fluoro-4-methoxyphenyl)imidazo[1,2-a]pyrazin-8-yl]amino]-2-methyl-N-[4-(methyl-amino)butyl] benzamide; hydrochloride]	350 nM
Cc1cc(Nc2nccn3c(-c4ccc(OC(F)F)cc4)cnc23)ccc1C(=O)N(C)CCOCCN1CCNCC1 [Example 126, 4-[[3-[4-(difluoromethoxy)phenyl]imidazo [1,2-a]pyrazin-8-yl]amino]-N,2-dimethyl-N-[2-(2-piperazin-1-ylethoxy)ethyl] benzamide]	670 nM
Cc1cc(Nc2nccn3c(-c4ccc(Cl)cc4)cnc23)ccc1C(=O)NCCNCCN [Example 117, N-[2-(2-aminoethylamino)ethyl]-4-[[3-(4-chlorophenyl)imidazo[1,2-a]pyrazin-8-yl]amino]-2-methylbenzamide; hydrochloride]	590 nM
CN(CCOCCN1CCC(C(=O)O)CC1)C(=O)c1ccc(Nc2nccn3c(-c4ccc(OCC#N)c(F)c4F)cnc23)cc1Cl [Example 175, 1-[2-[2-[[2-chloro-4-[[3-[4-(cyanomethoxy)-2,3-difluorophenyl]imidazo[1,2-a]pyrazin-8-yl]amino]benzoyl]-methylamino]ethoxy]ethyl] piperidine-4-carboxylic acid; formic acid]	1100 nM
CCc1cc(Nc2nccn3c(-c4ccc(OCC#N)c(F)c4Cl)cnc23)ccc1C(=O)NCCOCCN(C)C [Example 22, 4-[[3-[2-chloro-4-(cyanomethoxy)-3-fluoro-phenyl]imidazo[1,2-a]pyrazin-8-yl]amino]-N-[2-[2-(dimethylamino)ethoxy]ethyl]-2-ethyl-benzamide]	67 nM
COc1ccc(-c2cnc3c(Nc4ccc(C(=O)NCCOCCN5CCC(F)CC5)c(C)c4)nccn23)cc1 [Example 43, N-(2-(2-(4-fluoropiperidin-1-yl)ethoxy)ethyl)-4-((3-(4-methoxyphenyl)imidazo[1,2-a]pyrazin-8-yl)amino)-2-methylbenzamide]	290 nM
COc1ccc(-c2cnc3c(Nc4ccc(C(=O)NCCCOCC(=O)N5CCOC(CN)C5)c(C)c4)nccn23)cc1F (centres unmarked) [Example 124, N-[3-[2-[2-(aminomethyl)morpholin-4-yl]-2-oxoethoxy]propyl]-4-[[3-(3-fluoro-4-methoxyphenyl)imidazo[1,2-a]pyrazin-8-yl]amino]-2-methylbenzamide; hydrochloride]	640 nM
Cc1cc(Nc2nccn3c(-c4ccc(OC(F)F)cc4)cnc23)ccc1C(=O)NCCOCC(N)=O [Example 10, N-(2-(2-amino-2-oxoethoxy)ethyl)-4-((3-(4-(difluoromethoxy)phenyl)imidazo[1,2-a]pyrazin-8-yl)amino)-2-methylbenzamide]	170 nM
Cc1cc(Nc2nccn3c(-c4ccc(OC(F)F)cc4)cnc23)ccc1C(=O)NCCOCCN1CCC(O)CC1 [Example 81, 4-[[3-[4-(difluoromethoxy)phenyl]imidazo [1,2-a]pyrazin-8-yl]amino]-N-[2-[2-(4-hydroxy-piperidin-1-yl)ethoxy]ethyl]-2-methylbenzamide]	340 nM
Cc1cc(Nc2nccn3c(-c4ccc(OC(F)F)cc4)cnc23)ccc1C(=O)NCCOCCNC=O [Example 94, 4-[[3-[4-(difluoromethoxy)phenyl]imidazo [1,2-a]pyrazin-8-yl]amino]-N-[2-(2-formamidoethoxy)ethyl]-2-methylbenzamide]	280 nM
COc1ccc(-c2cnc3c(Nc4ccc(C(=O)NCCNCCO)c(C)c4)nccn23)cc1 [Example 7, N-(2-((2-hydroxyethyl)amino)ethyl)-4-((3-(4-methoxyphenyl)imidazo[1,2-a]pyrazin-8-yl)amino)-2-methylbenzamide]	1900 nM
Cc1cc(Nc2nccn3c(-c4ccc(OC(F)F)cc4)cnc23)ccc1C(=O)NCCOCCN [Example 90, N-[2-(2-aminoethoxy)ethyl]-4-[[3-[4-(difluoro-methoxy)phenyl]imidazo[1,2-a]pyrazin-8-yl]amino]-2-methylbenzamide; hydrochloride]	230 nM
Cc1cc(Nc2nccn3c(-c4ccc(OC(F)F)cc4)cnc23)ccc1C(=O)NCCOCCOCCOCCOCCO [Example 155, 4-[[3-[4-(difluoro-methoxy)phenyl]imidazo [1,2-a]pyrazin-8-yl]amino]-N-[2-[2-[2-[2-(2-hydroxyethoxy)ethoxy]ethoxy]ethoxy]ethyl]-2-methylbenzamide]	2300 nM

Same assay, conditions: Acinetobacter baumannii, ATCC17978, 16 h, read-out: ATCC 17978 IC90

SMILES	IC90
COc1ccc(-c2cnc3c(Nc4ccc(C(=O)NCCOCCN)c(C)c4)nccn23)c(F)c1F [Example 5, N-(2-(2-aminoethoxy)ethyl)-4-((3-(2,3-difluoro-4-methoxyphenyl)imidazo[1,2-a]pyrazin-8-yl)amino)-2-methylbenzamide hydrochloride]	65 nM
Cc1cc(Nc2nccn3c(-c4ccc(Cl)c(F)c4)cnc23)ccc1C(=O)NCCOCCN [Example 32, N-(2-(2-aminoethoxy)ethyl)-4-((3-(4-chloro-3-fluorophenyl)imidazo[1,2-a]pyrazin-8-yl)amino)-2-methylbenzamide hydrochloride]	300 nM
